# Results reported in patent US12257247B2 (Monte Rosa Therapeutics AG, priority 2023, dated 2025).
# Where two headings read alike, the source gives them in different places.
# Target: T1, VAV1 (Homo sapiens, UniProt P15498+Q96SW2)
# T1 construct: A heterozygous VAV1 C-terminal HiBiT knock-in pool was generated at Monte Rosa Therapeutics from a clonal Jurkat cell; endogenous in cells; host or cells: Jurkat clone stably expressing LgBiT, homozygous GSPT1-G575N; heterozygous VAV1-HiBiT knock-in pool
# Assay: VAV1 degradation activity, VAV1-HiBiT knock-in Jurkat luminescence assay (Example A, Table 1)
# Type: cell-based
# Settings: VAV1-HiBiT knock-in Jurkat cells; for Dmax: Jurkat
# Method in brief: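 Jurkat cells carrying VAV1-HiBiT knock-in, plated in RPMI/10% FBS with Endurazine live-cell substrate and pre-incubated ~16 h at 37° C. Compound dosed from 10 μM stock; luminescence read 6 and 24 h later. Response normalised to plate negative/positive controls, EC50 from 3-parameter logistic fit (hillslope 1).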
# [1] = luminescence read at 6 and 24 hours, read-out: VAV1 Dmax %
# [2] = luminescence read at 6 and 24 hours, read-out: VAV1 Dmax %, class
# [3] = luminescence read at 6 and 24 hours, read-out: VAV1 DC50
# [4] = luminescence read at 6 and 24 hours, read-out: VAV1 DC50 (nM), class
# [5] = luminescence read at 6 and 24 hours after compound addition, read-out: VAV1 Dmax %
# [6] = luminescence read at 6 and 24 hours after compound addition, read-out: VAV1 Dmax %, class
# [7] = luminescence read at 6 and 24 hours after compound addition, read-out: VAV1 DC50
# [8] = luminescence read at 6 and 24 hours after compound addition, read-out: VAV1 DC50 (nM), class
Dmax [1] [%],Dmax [2] [%],DC50 [3] [nM],DC50 [4] [nM],Dmax [5] [%],Dmax [6] [%],DC50 [7] [nM],DC50 [8] [nM],Structure (SMILES)
23.5,< 60,≥ 10000,> 1000,,,,,"O=C1CCC(c2cccc(-c3ccc(CN4CCCOC4=O)nc3)c2Cl)C(=O)N1 (stereo not drawn) [Compound 431, 3-(2-chloro-3-(6-((2-oxo-1,3-oxazinan-3-yl)methyl)pyridin-3-yl)phenyl)piperidine-2,6-dione]"
96.7,> 90,8.25,≤ 100,,,,,"O=C1CCC(c2cccc(-c3ccc(Cc4ncco4)cc3)c2Cl)C(=O)N1 (stereo not drawn) [Compound 472, 3-(2-chloro-4′-(oxazol-2-ylmethyl)-[1,1′-biphenyl]-3-yl)piperidine-2,6-dione]"
88.5,60 to 90,41.4,≤ 100,,,,,"O=C1CCC(c2cccc(-c3ccc(N4C(=O)CCCC45CC5)nc3)c2Cl)C(=O)N1 (stereo not drawn) [Compound 389, 3-(2-chloro-3-(6-(5-oxo-4-azaspiro[2.5]octan-4-yl)pyridin-3-yl)phenyl)piperidine-2,6-dione]"
,,,,94.3,> 90,10.7,≤ 100,"O=C1CCC(c2cccc(-c3ccc4c(c3)CCC(=O)N4)c2Cl)C(=O)N1 (stereo not drawn) [Compound 492, 3-(2-chloro-3-(2-oxo-1,2,3,4-tetrahydroquinolin-6-yl)phenyl)piperidine-2,6-dione]"
98.2,> 90,3.17,≤ 100,,,,,Cc1nn(C)c2c1N(c1ccc(-c3cccc(C4CCC(=O)NC4=O)c3Cl)cc1)C(=O)CO2 (stereo not drawn) [Compound 333]
89.3,60 to 90,4.48,≤ 100,,,,,"CN1Cc2cccc(-c3ccc(-c4cccc(C5CCC(=O)NC5=O)c4Cl)cc3)c2C1=O (stereo not drawn) [Compound 439, 3-(2-chloro-4′-(2-methyl-3-oxoisoindolin-4-yl)-[1,1′-biphenyl]-3-yl)piperidine-2,6-dione]"
70.5,60 to 90,291,100 to 1000,,,,,"O=C1CCC(c2cccc(-c3ccc(N4C(=O)CC5CC54)cc3)c2Cl)C(=O)N1 (stereo not drawn) [Compound 478, 3-(2-chloro-4′-(3-oxo-2-azabicyclo[3.1.0]hexan-2-yl)-[1,1′-biphenyl]-3-yl)piperidine-2,6-dione]"
,,,,97.8,> 90,3.95,≤ 100,"Cn1ccc(CN2C(=O)COc3cc(-c4cccc(C5CCC(=O)NC5=O)c4Cl)ccc32)n1 (stereo not drawn) [Compound 502, 3-(2-chloro-3-(4-((1-methyl-1H-pyrazol-3-yl)methyl)-3-oxo-3,4-dihydro-2H-benzo[b][1,4]oxazin-7-yl)phenyl)piperidine-2,6-dione]"
94.8,> 90,12.8,≤ 100,,,,,"Cn1cnc(Cn2c(=O)oc3cc(-c4cccc(C5CCC(=O)NC5=O)c4Cl)ccc32)c1 (stereo not drawn) [Compound 392, 3-(2-chloro-3-(3-((1-methyl-1H-imidazol-4-yl)methyl)-2-oxo-2,3-dihydrobenzo[d]oxazol-6-yl)phenyl)piperidine-2,6-dione]"
96.5,> 90,8.9,≤ 100,,,,,"O=C1CCC(c2cccc(-c3ccc(N4C(=O)OCC45CC5)cc3)c2Cl)C(=O)N1 (stereo not drawn) [Compound 426, 3-(2-chloro-4′-(5-oxo-6-oxa-4-azaspiro[2.4]heptan-4-yl)-[1,1′-biphenyl]-3-yl)piperidine-2,6-dione]"
98.3,> 90,1.56,≤ 100,,,,,"CN1CCC(C)(C)N(c2ccc(-c3cccc(C4CCC(=O)NC4=O)c3Cl)cc2)C1=O (stereo not drawn) [Compound 378, 3-(2-chloro-4′-(3,6,6-trimethyl-2-oxotetrahydropyrimidin-1(2H)-yl)-[1,1′-biphenyl]-3-yl)piperidine-2,6-dione]"
98.2,> 90,1.96,≤ 100,,,,,"O=C1CCC(c2cccc(-c3ccc(N4C(=O)CCCC45CCC5)cc3)c2Cl)C(=O)N1 (stereo not drawn) [Compound 339, 3-(2-chloro-4′-(6-oxo-5-azaspiro[3.5]nonan-5-yl)-[1,1′-biphenyl]-3-yl)piperidine-2,6-dione]"
99.1,> 90,3.01,≤ 100,,,,,"Cn1cnc(Cn2ncc3cc(-c4cccc(C5CCC(=O)NC5=O)c4Cl)ccc32)c1 (stereo not drawn) [Compound 397, 3-(2-chloro-3-(1-((1-methyl-1H-imidazol-4-yl)methyl)-1H-indazol-5-yl)phenyl)piperidine-2,6-dione]"
97.7,> 90,5.85,≤ 100,,,,,"O=C1CCC(c2cccc(-c3ccc(N4C(=O)CCC45CC5)cc3)c2Cl)C(=O)N1 (stereo not drawn) [Compound 414, 3-(2-chloro-4′-(5-oxo-4-azaspiro[2.4]heptan-4-yl)-[1,1′-biphenyl]-3-yl)piperidine-2,6-dione]"
,,,,80.7,60 to 90,86.9,≤ 100,"O=C1CCC(c2cccc(-c3ccc4c(c3)CC(=O)N4Cc3cocn3)c2Cl)C(=O)N1 (stereo not drawn) [Compound 505, 3-(2-chloro-3-(1-(oxazol-4-ylmethyl)-2-oxoindolin-5-yl)phenyl)piperidine-2,6-dione]"
,,,,92,> 90,63.2,≤ 100,"Cn1cncc1Cn1ncc2cc(-c3cccc(C4CCC(=O)NC4=O)c3Cl)ccc21 (stereo not drawn) [Compound 508, 3-(2-chloro-3-(1-((1-methyl-1H-imidazol-5-yl)methyl)-1H-indazol-5-yl)phenyl)piperidine-2,6-dione]"

# Further lines, the compound ahead of its results:
Structure (SMILES),Dmax [1] [%],Dmax [2] [%],DC50 [3] [nM],DC50 [4] [nM],Dmax [5] [%],Dmax [6] [%],DC50 [7] [nM],DC50 [8] [nM]
"O=C1CCC(c2cccc(-c3ccc(NC(=O)c4ccon4)cc3)c2Cl)C(=O)N1 (stereo not drawn) [Compound 229, N-(2′-chloro-3′-(2,6-dioxopiperidin-3-yl)-[1,1′-biphenyl]-4-yl)isoxazole-3-carboxamide]",82.7,60 to 90,79.3,≤ 100,,,,
CN1CCN(CCOc2ccc(-c3cccc(C4CCC(=O)NC4=O)c3Cl)cc2)CC1 (stereo not drawn) [Compound 104],81.7,60 to 90,59.7,≤ 100,,,,
CCc1cc(-c2cccc(C3CCC(=O)NC3=O)c2Cl)ccc1N (stereo not drawn) [Compound 101],96,> 90,12.3,≤ 100,,,,
"Cc1c(-c2ccc(Cn3ccccc3=O)cc2)cccc1C1CCC(=O)NC1=O (stereo not drawn) [Compound 243, 3-[2-methyl-3-[4-[(2-oxo-1-pyridyl)methyl]phenyl]phenyl]piperidine-2,6-dione]",56.8,< 60,4220,> 1000,,,,
CC1CCN(Cc2ccc(-c3cccc(C4CCC(=O)NC4=O)c3Cl)cc2)C1=O (stereo not drawn) [Compound 290],92.9,> 90,16.9,≤ 100,,,,
"CC(c1ccc(-c2cccc(C3CCC(=O)NC3=O)c2Cl)cc1)n1ccccc1=O (stereo not drawn) [Compound 174, 3-(2-chloro-4′-(1-(2-oxopyridin-1(2H)-yl)ethyl)-[1,1′-biphenyl]-3-yl)piperidine-2,6-dione]",92.2,> 90,27.4,≤ 100,,,,
"CC(Oc1ccccn1)c1ccc(-c2cccc(C3CCC(=O)NC3=O)c2Cl)cc1 (stereo not drawn) [Compound 165, 3-(2-chloro-4′-(1-(pyridin-2-yloxy)ethyl)-[1,1′-biphenyl]-3-yl)piperidine-2,6-dione]",90.2,> 90,47.7,≤ 100,,,,
CN1CC(=O)N(c2ccc(-c3cccc(C4CCC(=O)NC4=O)c3Cl)cc2)c2cncnc21 (stereo not drawn) [Compound 326],90.9,> 90,16.2,≤ 100,,,,
"O=C1CCC(c2cccc(-c3ccc(NC(=O)c4ccno4)cc3)c2Cl)C(=O)N1 (stereo not drawn) [Compound 228, N-(2′-chloro-3′-(2,6-dioxopiperidin-3-yl)-[1,1′-biphenyl]-4-yl)isoxazole-5-carboxamide]",73.5,60 to 90,190,100 to 1000,,,,
CC1CCCN(c2ccc(-c3cccc(C4CCC(=O)NC4=O)c3Cl)cc2)C1=O (stereo not drawn) [Compound 329],95.8,> 90,6.62,≤ 100,,,,
"O=C1CCC(c2cccc(-c3ccc(N4CCC4=O)cc3)c2Cl)C(=O)N1 (stereo not drawn) [Compound 163, 3-(2-chloro-4′-(2-oxoazetidin-1-yl)-[1,1′-biphenyl]-3-yl)piperidine-2,6-dione]",44.7,< 60,≥ 10000,> 1000,,,,
CC1CCC(=O)N(Cc2ccc(-c3cccc(C4CCC(=O)NC4=O)c3Cl)cc2)C1 (stereo not drawn) [Compound 288],96.7,> 90,6.09,≤ 100,,,,
O=C1CCC(c2cccc(-c3ccc(CN4CCn5nccc5C4=O)cc3)c2Cl)C(=O)N1 (stereo not drawn) [Compound 275],87.6,60 to 90,37.2,≤ 100,,,,
"CC(Oc1ccc(-c2cccc(C3CCC(=O)NC3=O)c2Cl)cc1)c1ccn(C)n1 (stereo not drawn) [Compound 173, 3-(2-chloro-4′-(1-(1-methyl-1H-pyrazol-3-yl)ethoxy)-[1,1′-biphenyl]-3-yl)piperidine-2,6-dione]",88.1,60 to 90,40.2,≤ 100,,,,
